Laboratory results reported in patent US20250134869A1, “Pyrrolo[2,3-d]pyrimidinyl, Pyrrolo[2,3-b]pyrazinyl and Pyrrolo[2,3-d]pyridinyl Acryla-mides” (Pfizer Inc, priority 2021, published 2025).

The compounds below were run against JAK3 enzyme (Homo sapiens (Human), UniProt P52333) (assay: JAK Caliper Enzyme Assay at 4 μM or 1 mM ATP). Conditions: read-out: JAK3 (4 μM ATP) IC50; 4 μM ATP.
Type: biochemical

JAK3 enzyme, sequence (P52333 whole entry, species assumed): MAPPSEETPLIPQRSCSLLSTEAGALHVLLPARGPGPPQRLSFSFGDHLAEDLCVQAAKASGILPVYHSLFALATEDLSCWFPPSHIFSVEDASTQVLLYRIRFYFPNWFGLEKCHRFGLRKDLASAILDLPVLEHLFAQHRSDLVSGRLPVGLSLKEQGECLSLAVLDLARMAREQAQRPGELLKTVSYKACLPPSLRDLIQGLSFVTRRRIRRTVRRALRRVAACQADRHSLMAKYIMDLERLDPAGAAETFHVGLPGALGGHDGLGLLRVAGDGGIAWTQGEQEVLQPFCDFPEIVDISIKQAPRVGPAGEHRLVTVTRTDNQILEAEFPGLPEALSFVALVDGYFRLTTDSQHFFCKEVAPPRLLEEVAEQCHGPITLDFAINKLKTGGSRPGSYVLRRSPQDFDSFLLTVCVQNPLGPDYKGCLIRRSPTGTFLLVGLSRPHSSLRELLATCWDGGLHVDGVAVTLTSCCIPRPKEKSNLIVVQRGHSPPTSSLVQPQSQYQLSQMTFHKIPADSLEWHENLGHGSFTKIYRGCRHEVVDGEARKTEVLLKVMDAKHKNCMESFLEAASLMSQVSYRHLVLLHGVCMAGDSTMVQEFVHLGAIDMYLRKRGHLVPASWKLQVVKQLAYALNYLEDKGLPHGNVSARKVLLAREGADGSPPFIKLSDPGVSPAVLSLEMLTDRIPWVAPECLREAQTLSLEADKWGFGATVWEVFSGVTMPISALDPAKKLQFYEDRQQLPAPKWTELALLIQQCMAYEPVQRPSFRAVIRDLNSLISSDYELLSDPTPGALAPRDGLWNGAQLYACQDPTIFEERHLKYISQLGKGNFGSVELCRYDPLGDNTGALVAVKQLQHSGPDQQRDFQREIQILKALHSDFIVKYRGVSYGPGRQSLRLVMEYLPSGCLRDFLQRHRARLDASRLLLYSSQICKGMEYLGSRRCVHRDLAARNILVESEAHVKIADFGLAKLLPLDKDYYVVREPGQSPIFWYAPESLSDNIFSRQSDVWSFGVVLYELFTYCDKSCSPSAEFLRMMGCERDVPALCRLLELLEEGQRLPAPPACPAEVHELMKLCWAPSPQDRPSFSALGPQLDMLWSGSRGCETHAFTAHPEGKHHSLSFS

SMILES | IC50
C=CC(=O)N1CCC[C@@H](Nc2ncnc3[nH]cc(C(=O)NC)c23)C1 [Example 145, 4-{[(3R)-1-acryloylpiperidin-3-yl]amino}-N-methyl-7H-pyrrolo[2,3-d]pyrimidine-5-carboxamide] | 112 nM
C=CC(=O)N1CCC[C@@H](Nc2ncnc3[nH]cc(C(=O)N4CCCC4)c23)C1 [Example 146, 1-[(3R)-3-{[5-(pyrrolidin-1-ylcarbonyl)-7H-pyrrolo[2,3-d]pyrimidin-4-yl]amino}pipendin-1-yl]prop-2-en-1-one] | 957 nM
C/C=C/C(=O)N1CCC[C@@H](Nc2ncnc3[nH]cc(C(=O)N4CCCC4)c23)C1 [Example 147, (2E)-1-[(3R)-3-{[5-(pyrrolidin-1-ylcarbonyl)-7H-pyrrolo[2,3-d]pyrimidin-4-yl]amino}pipendin-1-yl]but-2-en-1-one] | > 10000 nM
C/C=C/C(=O)N1CCC[C@@H](Nc2ncnc3[nH]cc(C(=O)NCCO)c23)C1 [Example 148, 4-({(3R)-1-[(2E)-but-2-enoyl]piperidin-3-yl}amino)-N-(2-hydroxyethyl)-7H-pyrrolo[2,3-d]pyrimidine-5-carboxamide] | 6960 nM
C/C=C/C(=O)N1CCC[C@@H](Nc2ncnc3[nH]cc(C(=O)NCCOC)c23)C1 [Example 149, 4-({(3R)-1-[(2E)-but-2-enoyl]piperidin-3-yl}amino)-N-(2-methoxyethyl)-7H-pyrrolo[2,3-d]pyrimidine-5-carboxamide] | > 10000 nM
C=C(C)C(=O)N1CCC[C@@H](Nc2ncnc3[nH]cc(CCO)c23)C1 [Example 152, 1-[(3R)-3-{[5-(2-Hydroxyethyl)-7H-pyrrolo[2,3-d]pyrimidin-4-yl]amino}piperidin-1-yl]-2-methylprop-2-en-1-one] | 4240 nM
C=CC(=O)N1CCC[C@@H](Nc2c(C#N)cnc3[nH]ccc23)C1 [Example 156, 4-{[(3R)-1-Acryloylpiperidin-3-yl]amino}-1H-pyrrolo[2,3-b]pyridine-5-carbonitrile] | 7.2 nM
N#CCCc1c[nH]c2ncnc(N[C@@H]3CCCN(C(=O)/C=C/CO)C3)c12 [Example 158, 3-[4-({(3R)-1-[(2E)-4-Hydroxybut-2-enoyl]piperidin-3-yl}amino)-7H-pyrrolo[2,3-d]pyrimidin-5-yl]propanenitrile] | > 10000 nM
C/C=C/C(=O)N1CCC[C@@H](Nc2ncnc3[nH]cc(CC(C)(C)O)c23)C1 [Example 159, (2E)-1-[(3R)-3-{[5-(2-Hydroxy-2-methylpropyl)-7H-pyrrolo[2,3-d]pyrimidin-4-yl]amino}piperidin-1-yl]but-2-en-1-one] | > 10000 nM
C=CC(=O)N1C[C@H](Nc2ccnc3[nH]cc(C#N)c23)CC[C@@H]1C [Example 165, 4-{[(3R,6S)-1-Acryloyl-6-methylpiperidin-3-yl]amino}-1H-pyrrolo[2,3-b]pyridine-3-carbonitrile] | 0.5 nM

More lines, in order of falling IC50, values ahead:

IC50 | SMILES
1470 nM | CN(C)C/C=C/C(=O)N1CCC[C@@H](Nc2ncnc3[nH]cc(CCC#N)c23)C1 [Example 157, 3-[4-({(3R)-1-[(2E)-4-(Dimethylamino)but-2-enoyl]piperidin-3-yl}amino)-7H-pyrrolo[2,3-d]pyrimidin-5-yl]propanenitrile]
144 nM | C=CC(=O)N1CCC[C@@H](Nc2ncnc3[nH]cc(C(=O)NCCO)c23)C1 [Example 143, 4-{[(3R)-1-acryloylpiperidin-3-yl]amino}-N-(2-hydroxyethyl)-7H-pyrrolo[2,3-d]pyrimidine-5-carboxamide]
139 nM | C=CC(=O)N1CCC[C@@H](Nc2ncnc3[nH]cc(C(=O)NCC)c23)C1 [Example 144, 4-{[(3R)-1-acryloylpiperidin-3-yl]amino}-N-ethyl-7H-pyrrolo[2,3-d]pyrimidine-5-carboxamide]
0.6 nM | C=CC(=O)N1C[C@H](Nc2ncnc3[nH]cc(C#N)c23)CC[C@@H]1C [Example 163, 4-{[(3R,6S)-1-Acryloyl-6-methylpiperidin-3-yl]amino}-7H-pyrrolo[2,3-d]pyrimidine-5-carbonitrile]

Same assay, conditions: read-out: JAK3 (1 mM ATP) IC50; 1 mM ATP

IC50 | SMILES
47.1 nM | C=CC(=O)N1C[C@H](Nc2ncnc3[nH]cc(C#N)c23)CC[C@@H]1C [Example 163, 4-{[(3R,6S)-1-Acryloyl-6-methylpiperidin-3-yl]amino}-7H-pyrrolo[2,3-d]pyrimidine-5-carbonitrile]
22.7 nM | C=CC(=O)N1C[C@H](Nc2ccnc3[nH]cc(C#N)c23)CC[C@@H]1C [Example 165, 4-{[(3R,6S)-1-Acryloyl-6-methylpiperidin-3-yl]amino}-1H-pyrrolo[2,3-b]pyridine-3-carbonitrile]
